Data as given in PMC9011347, “Small-Molecule Inhibitors Targeting Lipolysis in Human Adipocytes” (Journal of the American Chemical Society, 2022).

Key:
Assay in all cases: TAG hydrolase assay, chimeric ATGL variants
Format in all cases: biochemical, human and mouse
[1] = biological target: T1, Variant c3 containing aa 1–23 of human ATGL (Homo sapiens, UniProt Q96AD5, F69I/F97C/G146T/H109R/I93T/K68N/N133S/S106C/S111N/S158T/S96G/V101T/V60A); settings: variant c3, NG-497 (10 μM) or Atglistatin (10 μM)
T1 construct: host or cells: Expi293 cells, cell lysate
Experimental: (§1) Figure 5 Analysis of chimeric proteins comprising human and mouse ATGL. (a) Schematic view of the minimal active domain of wild-type and chimeric ATGL variants (c1–c9). Nonidentical aa are indicated in blue and red for mouse and human ATGL, respectively. ATGL variants were expressed in Expi293 cells and TAG hydrolase activity was determined in cell lysates in the presence or absence of NG-497 (10 μM) and Atglistatin (10 μM), respectively. Inhibition of ATGL variants by respective inhibitors (tick mark) and lack of inhibition (cross) is indicated at the right edge. The expression of all ATGL variants was confirmed by Western blotting analysis (Figure S6). (b) Dose-dependent inhibition of human ATGL (aa 1–288) and c1 (human aa 1–158 and mouse aa 159–288) by NG-497. (c) Dose-dependent inhibition of mouse ATGL (aa 1–288) and c2 (mouse aa 1–158 and human aa 159–288) by Ai. IC50 values are shown in the insets. Data are presented as relative inhibition of respective DMSO controls and are indicated as mean ± SD. (d) 3D homology model of the minimal active domain of mouse ATGL (M1–L254) depicted as a cartoon. Residues 1–178 are in blue, and residues 179–254 are in gray. S47 and D166 comprising the active site are represented as green sticks. T101, C106, R109, N111, and S133 are colored in orange, A60, N68, I69, T93, C97, and T146 are colored in magenta. TEXT PRINTED IN THE PICTURE: (b) NG-497: IC50 [μM] (human): 1.3±0.1; IC50 [μM] (c1): 1.3±0.1 | (b) Ai: IC50 [μM] (human): n.det.; IC50 [μM] (c1): n.det. | (c) NG-497: IC50 [μM] (mouse): n.det.; IC50 [μM] (c2): n.det. | (c) Ai: IC50 [μM] (mouse): 2.5±0.3; IC50 [μM] (c2): 2.4±0.1 […]
(§2) We next generated variants by further stepwise humanization of c2. Variant c3 containing aa 1–23 of human ATGL was inhibited by Ai but not NG-497 (Figure 5a). […] Finally, variants of mouse ATGL containing aa 1–146 (c7) and 60–146 (c8) of human ATGL were inhibited by NG-497 but not Ai (Figure 5a).
(§3) Experimental details, materials, and methods
(§4) Expression of recombinant ATGL constructs and preparation of cell lysates. Expi293 cells were cultivated in Expi293 Expression Medium (GIBCO, Thermo Fisher Scientific, Waltham, USA) at standard conditions (37°C, 5% CO2, 95% humidified atmosphere, 125 rpm). DNA constructs containing ATGL from different species and chimeric ATGL variants in pcDNA3.1(+)myc-His C Vector were obtained from BioCat GmbH (Heidelberg, Germany). Cells were transfected with ExpiFectamine293 Transfection Kit (GIBCO) in Opti-Mem reduced serum medium (GIBCO) according to the manufacturer’s instructions. After 48 h, cells were harvested by centrifugation and washed three times with PBS. Cells were disrupted in buffer A (0.25 M sucrose, 1 mM EDTA, 1 mM dithiothreitol, 20µg/ml leupeptin, 2 µg/ml antipain, 1 µg/ml pepstatin, pH 7.0) by sonication (Virsonic 475, Virtis, Gardiner, USA). Nuclei and debris were removed by centrifugation at 1,000 g and 4°C for 10 min. Protein concentrations were determined using Bio-Rad protein assay (Bio-Rad 785, Bio-Rad Laboratories, Munich, Germany) using BSA as standard.
(§5) Expression and purification of mouse CGI-58. CGI-58 was expressed and purified as described 1. In brief, the coding sequence of mouse Cgi-58 was cloned into pHis-Sumo and co-transformed with the plasmid pTf16 expressing the chaperone Tig into E. coli BL21(DE3). Cells were cultured overnight at 37°C and 180 rpm in the presence of 40 µg/ml kanamycin and 34 µg/ml chloramphenicol. Thereafter, cells were transferred into fresh LB medium, grown until OD600 of 0.6, and expression was induced by the addition of 0.5 mM IPTG. After overnight incubation at 30°C, cells were harvested at 4,500 x g and 4°C for 20 min, washed in 1x PBS, and resuspended in lysis buffer (20 mM Tris/HCl pH 7.8, 300 mM NaCl, 30 mM imidazole, 0.1% IGEPAL CA-630, 3.5 mM β-mercaptoethanol, 20 µg/ml leupeptin, 2 µg/ml antipain and 1 µg/ml pepstatin). Cells were incubated with 1 […]

[2] = system: c8 (mouse ATGL containing aa 60–146 of human ATGL); settings: variant c8, NG-497 (10 μM) or Atglistatin (10 μM)
Experimental: as §1, §2, §3, §4, §5

[3] = biological target: T2, c7 (mouse ATGL containing aa 1–146 of human ATGL) (Mus musculus, UniProt Q8BJ56, A60V/C106S/C97F/G96S/H22Y/I23V/I69F/K7T/N111S/N68K/R109H/S133N/T101V/T146G/T6K/T93I); settings: variant c7, NG-497 (10 μM) or Atglistatin (10 μM)
T2 construct: host or cells: Expi293 cells, cell lysate
Experimental: as §1, §2, §3, §4, §5

T2 sequence (Q8BJ56 1-288 with the stated changes limits assumed): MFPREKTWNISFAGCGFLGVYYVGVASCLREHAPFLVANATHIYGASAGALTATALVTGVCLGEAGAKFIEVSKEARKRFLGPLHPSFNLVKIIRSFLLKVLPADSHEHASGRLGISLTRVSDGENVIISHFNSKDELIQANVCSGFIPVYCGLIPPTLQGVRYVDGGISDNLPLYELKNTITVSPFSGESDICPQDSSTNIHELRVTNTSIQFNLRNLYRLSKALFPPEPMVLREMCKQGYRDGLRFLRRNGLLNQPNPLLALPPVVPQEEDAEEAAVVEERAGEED
T1 sequence (Q96AD5 1-288 V60A/K68N/F69I/I93T/S96G/F97C/V101T/S106C/H109R/S111N/N133S/G146T/S158T): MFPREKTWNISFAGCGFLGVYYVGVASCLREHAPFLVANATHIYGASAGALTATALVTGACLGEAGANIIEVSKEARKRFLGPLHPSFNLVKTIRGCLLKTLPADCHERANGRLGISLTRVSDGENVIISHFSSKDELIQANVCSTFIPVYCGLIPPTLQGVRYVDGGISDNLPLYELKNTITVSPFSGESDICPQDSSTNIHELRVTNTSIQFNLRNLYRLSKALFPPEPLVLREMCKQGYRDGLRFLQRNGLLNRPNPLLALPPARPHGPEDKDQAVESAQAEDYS

| SMILES | inhibition of TAG hydrolase activity [1] | inhibition of TAG hydrolase activity [2] | inhibition of TAG hydrolase activity [3] |
| --- | --- | --- | --- |
| CN(C)C(=O)Nc1cccc(-c2ccc(N(C)C)cc2)c1 [Atglistatin, reference compound] | inhibited | – | – |
| CCOc1ccc(-c2cc(OC)cc(C(=O)OC(C)C)n2)cc1 [NG-497] | – | inhibited | inhibited |
